{"source": "patent US20120301510A1", "about": "“TOLEROGENIC SYNTHETIC NANOCARRIERS COUPLED TO CD1D-RESTRICTED ANTIGENS AND METHODS OF USE” (Selecta Biosciences, Inc., priority 2011, published 2012)", "test_system": "iNKT cells", "test": "iNKT cell activation in mice after injection of aGC and/or rapamycin, soluble or in nanocarriers (flow cytometry of liver lymphocytes)", "assay_type": "in vivo", "details": "about 4 h after injection", "procedure": "Mice were designated to groups that received PBS alone, soluble aGC, NPaGC, sol aGC+solRAPA, sol aGC+NP RAPA, NPaGC+solRAPA or NPaGC+NP RAPA. Mice were injected at 9 am and at 9.30 AM received BrefeldinA i.v. to prevent release of intracellular cytokines produced. At 1 pm, mice were sacrificed and the liver was perfused with PBS and processed to obtain a single cell suspension enriched for lymphocytes. Cells were stained with cell surface markers for iNKT cells (agc-loaded CD1d tetramers) and T cells receptor (TCRb) and activation marker CD69. The cell suspension was then permeabilized and intracellular cytokine staining was performed for Th1 cytokine IFN-γ, and Th2 cytokines IL-4 and the anti-inflammatory cytokine IL-10. Cells were acquired on a FacsCanto flow cytometer and analyzed on by FlowJo.", "data": [{"molecule": "CCCCCCCCCCCCCCCCCCCCCCCCCC(=O)N[C@@H](CO[C@H]1O[C@H](CO)[C@H](O)[C@H](O)[C@H]1O)[C@H](O)[C@H](O)CCCCCCCCCCCCCC", "note": "[aGC, α-Galactosyl Ceramide (KRN7000)]", "values": [{"measurement": "iNKT cell activation as seen by cytokine production and upregulation of CD69 on their surface", "result": "activated"}]}]}
